Values of other authors in patent US20120021048A1, “Combination Dosage Compositions Comprising a Cholesterol-Lowering Agent, a Renin-Angiotensin System Inhibitor, an Antioxidant Agent and an Antiplatelet Agent for Treatment and Prevention of Cardiovascular Disease” (Nucitec S.A. de C.V., priority 2010, published 2012).
Where two headings read alike, the source gives them in different places.

Key:
[1] = expected value, single agent at polypill dose, cited from earlier work
macrophages = conditions: lycopene added to macrophages in cell culture; cited from earlier work
[2] = expected value; doses of polypill (atorvastatin 20 mg, lycopene 30 mg); cited from earlier work
[3] = in vivo pure lycopene supplementation; cited from earlier work

Row | Structure (SMILES) | % reduction in risk of Ischaemic heart disease [1] [%] | % reduction in risk of Ischaemic heart disease ([1]; listed as acetylsalicylic acid) | suppression of cellular cholesterol synthesis (macrophages) | Reduction in concentration (LDL-cholesterol) [2] [mg/dL] | reduction of plasma LDL cholesterol concentration [3] [%] | % reduction in risk of Ischaemic heart disease ([1]; listed as atorvastatin)
1 | CC(=O)Oc1ccccc1C(=O)O [Acetylsalicylic Acid] | 32 | about 32% |  |  |  | 
2 | CC(C)=CCC/C(C)=C/C=C/C(C)=C/C=C/C(C)=C/C=C/C=C(C)/C=C/C=C(C)/C=C/C=C(\C)CCC=C(C)C [Lycopene] | ~20 |  | approximately 40% | 14 to 20 | 14 | 
3 | CC(C)c1c(C(=O)Nc2ccccc2)c(-c2ccccc2)c(-c2ccc(F)cc2)n1CC[C@@H](O)C[C@@H](O)CC(=O)O [Atorvastatin] | 61 |  |  | 70 |  | about 61%
4 | CCOC(=O)[C@H](CCc1ccccc1)N[C@@H](C)C(=O)N1[C@H](C(=O)O)C[C@@H]2CCC[C@@H]21 [Ramipril] | ~25 |  |  |  |  | 
